Measured values as given in patent publication US20120076871A1, “METHOD FOR DETECTING, QUANTIFYING AND MAPPING DAMAGE AND/OR REPAIR OF DNA STRANDS” (GENOMIC VISION SA, priority 2010, published 2012).

Assays:
testicular cancer = conditions: strongly reduced DNA repair capacity; cited from earlier work
[1] = tested on: non-small cell lung cancer (NSCLC); conditions: higher levels of DNA repair capacity; cited from earlier work
[2] = tested on: human DNA extracted from cells; experiment: Relative fragmentation-induced Profile Deviation: Fpg treatment and Molecular Combing of DNA from cells exposed to H2O2; type: cell-based
Experimental: Construction of a DNA length reference profile of a healthy cellular population and comparison of the profile obtained from the same population after exposure to a genotoxic agent is performed. High resolution DNA length reference profiles are constructed by measuring the size of thousands of DNA molecules uniformly stretched on a combed slide.
In the case of damage generated at high frequency along the genome (for instance SSB, abasic sites, methylated, alkylated, oxidated bases, photoproducts), the conversion of most of the targeted lesions into DSB generates theoretically as much new DNA extremities as much lesions were present on the molecules. When comparing the length distribution profile of the damaged sample with the undamaged reference, a Profile Deviation (PD) associated to a specific damage appears. The amount of lesions generated by the genotoxic compound can then be estimated directly from the PD. […]
For direct visualization of stretched DNA, cover-slips were mounted with 20 μL of a Block-Aid (Invitrogen, ref. B-10710)-YOYO-1 iodide (Molecular Probes, code Y3601) mixture (10000:1 v/v) in order to counter-stain all stretched molecules. […] Length of the YOYO-1-stained DNA fibers were measured with internal software GVlab v0.4.6 (Genomic Vision S.A., Paris, France).

| SMILES | survival rate after cisplatin treatment (testicular cancer) | survival after cisplatin treatment [1] | decay constants τ of exponential fit y=Ae^-x/τ of DNA size distribution as a function of H2O2 dose ([2]; 1, 5, 10 and 20 mM H2O2, 10 min, control excluded from linear fit) | length of stretched DNA strands (clustered oxidative damage) after Fpg treatment ([2]; cells incubated 10 min with 10 and 20 mM H2O2, compared to control sample) |
| --- | --- | --- | --- | --- |
| N.N.[Cl][Pt][Cl] [cisplatin] | 95% | low survival | – | – |
| OO [H2O2] | – | – | decrease linearly | much shorter than in the control sample |
